From PMC9146163, “Novel Au Carbene Complexes as Promising Multi-Target Agents in Breast Cancer Treatment” (Pharmaceuticals, 2022)

What was measured:
[1] = test system: MCF-10A cells; test: TUNEL assay, MCF-10A; settings: IC50, 24 h
Experimental: TUNEL assay was employed to assess the cells’ apoptosis, following the manufacturer’s procedures (CF™488A TUNEL Assay Apoptosis Detection Kit, Biotium, Hayward, CA, USA). […] DAPI (Sigma, 0.2 µg/mL) was used for nuclei staining. A fluorescence microscope (Leica DM 6000) was used for fluorescence detection (20× magnification). All the images were processed using the LAS-X software. Images are representative of three independent experiments.
TUNEL assay in MCF-10A cells
Then they were exposed to the TdT enzyme and
visualized under a fluorescence microscope (20x magnification).

[2] = test system: vimentin in MCF-10A cells; test: Vimentin expression (immunofluorescence, Western blot), MCF-10A; assay type: cell-based, human; settings: IC50 values, 24 h; immunofluorescence and Western blot quantification
Experimental: (§1) The MitoTracker Deep Red FM probe (MitoTracker Mitochondrion-Selective Probes, Invitrogen European Headquarters, Paisley, PA4 9RF, UK) was used for mitochondrial staining, as previously described. For immunofluorescence analysis, the cells were seeded and further processed, as reported by Iacopetta et al.. The primary antibodies used were: rabbit anti-β-Actin and vimentin (Santa Cruz Biotechnology, Dallas, TX, USA), mouse anti cytochrome c and NF-κB p65 (Abcam, Cambridge, UK), diluted 1:100 in bovine serum albumin (BSA) 2% overnight at 4 °C. The secondary antibodies were: Alexa Fluor® 488 conjugate goat-anti-rabbit and Alexa Fluor® 568 conjugate goat-anti-mouse (Thermo Fisher Scientific, MA, USA), diluted 1:500 and incubated for 2h at 37 °C. DAPI 0.2 μg/mL (Sigma Aldrich, Milan, Italy) was used for nuclei staining. […] All the images were acquired and processed using the LAS-X software.
Protein lysates underwent the SDS-PAGE process, as already defined. […]
(CTRL) for 24 h. After treatment, the cells were further processed, observed and imaged under the inverted fluorescence microscope at 20x m agnification (for mo re details see Materi als and M ethods). […]
and processed as reported in the Experimental Section. […] (d) Western blots quantification carried out using […]

[3] = LogP determination (1-octanol/water, UV/vis); assay type: physicochemical; settings: log[complex]oct/[complex]H2O, 55 μM, UV-Vis
Experimental: The logarithm of the partition coefficient (LogP) was evaluated by making a slight modification to the procedure reported in ref. [79]. Equal volumes of 1-octanol and water (distilled after milli-Q purification) were stirred for 20 h at room temperature. Then, they were separated to give 1-octanol-saturated water and water-saturated 1-octanol. Six (10, 20, 40, 50, 60 and 100 μM) standard concentrations of the compounds were prepared from the water-saturated 1-octanol. Analysis using UV/vis spectroscopy was used to obtain a calibration curve of absorbance vs. concentration. For each complex, a solution was prepared in the water-saturated 1-octanol (55 μM) and an equal volume of 1-octanol-saturated water was added. The solutions (biphasic) were mixed for 15 min and then centrifuged for 1h at 6500 rpm to allow separation.
Concentration in water-saturated 1-octanol was determined by UV-Vis spectroscopy. Reported LogP is defined as log[complex]oct/[complex]H2O.

[4] = test system: caspases 3/7, 8, and 9 in MCF-10A cells; test: Caspase-Glo assay, MCF-10A; assay type: cell-based, human; settings: IC50 values, 24 h; vs vehicle
Experimental: The activities of caspases 3/7, 8, and 9 were measured by using the Caspase-Glo Assay according to the manufacturer’s guidelines (Caspase-Glo 3/7, 8, and 9 Assay Systems, Promega Corporation, Madison, WI, USA), as already described. The luminescence was detected in a plate-reading luminometer (Synergy H1 Hybrid Reader, BioTek) for 30 min to 3 h (λex/em = 490/570 nm). Results were reported as signal-to-noise ratio (background was determined from the culture medium without cells). The experiments were performed in triplicate.
H: Figure S4. Caspases activity in MCF-10A cells
Caspase 3/7 Caspase 8 Caspase 9
Figure S4. Caspases activity.
between th e vehicl e-treated cells, us ed as control, and the cells treated with compounds 1 and 6. Both
The data are representative of […]

[5] = target: T1, Labeled Rabbit Muscle Actin (Oryctolagus cuniculus, UniProt P68135); test: In vitro actin polymerization assay; assay type: biochemical; settings: 5 µM
T1 construct: purchased Abcam (Actin Polymerization/Depolymerization Assay Kit)
Experimental: (§2) The ability of the tested compounds to interfere with the actin polymerization and depolymerization reaction was measured using an Actin Polymerization/Depolymerization Assay Kit purchased from Abcam, following the manufacturer’s instructions. […] For the polymerization assay, reconstituted actin was mixed with supplemented Buffer G and samples in a white 96-well plate and then the polymerization reaction was induced with the addition of the Buffer P supplemented with 10 mM ATP. The solution was mixed and the data acquisition started. For the Actin Depolymerization Assay, supplemented Buffers P and G were mixed and incubated in a white 96-well plate at room temperature for one hour to polymerize the actin, protected from light. Then samples were added and the data acquisition started. Latrunculin A and Cytochalasin B were used as control molecules at a concentration of 5 μM. For both the assays, the assembly of actin filaments was determined by measuring the fluorescence (Ex/Em: 365/410 nm) in kinetic mode for 1 h at room temperature using a microplate reader.

[6] = test system: cytochrome c in MCF-10A cells; test: Mitochondria staining and cytochrome c detection, MCF-10A; assay type: cell-based, human; settings: IC50 value, 24 h
Experimental: as §1
I: Figure S5. Mitochondria staining and cytochrome c detection in MCF-10A cells
Figure S5. Mitochondria staining and cytochrome c detection in MCF-10A cells. Figure S5.
Mitochondria staining and cytochrome c detection in MCF-10A cells. In th e CTRL cells as well as
Panels A, DAP I λex/em= 350/460 nm; Panels B, Alexa Fluor CF 488 λex/em=
490/515 nm; Panels C, MitoTracker Deep Red FM probe λex/em= 644/665 nm. Panels D: overlay
channels. Images were acquired at 40x magnification and representative fields are shown.

[7] = target: T1, Labeled Rabbit Muscle Actin; test: In vitro actin depolymerization assay; assay type: biochemical; settings: 5 µM
Experimental: as §2

[8] = test system: NF-κB in MCF-10A cells; test: NF-κB immunofluorescence, MCF-10A; assay type: cell-based, human
Experimental: as §1
L: Figure S6. NF-κB expression in MCF-10A cells
CTRL cells and in the cells exposed to compounds 1 and 6 NF-κB is localized within the cytoplasm and nucleus. Panels A, nuclear stain with DAPI (λex/em= 350/460 nm); panels B, Alexa Fluor CF 488 (λex/em= 490/515 nm); panels C, overlay channels. Images were acquired at 40x magnification and repres entative fields are shown.

## CC(=O)[O-].Cn1c(Cl)c(Cl)n(CC(O)c2ccccc2)[c]1=[Au+]=[c]1n(C)c(Cl)c(Cl)n1CC(O)c1ccccc1 (centres unmarked) [Compound 6, Bis [4,5-dichloro-(N-methyl, N’(2-hydroxy-2-phenyl-ethyl)imidazole-2-ylidine]gold(I)] acetate]
[1]
  apoptosis (TUNEL), MCF-10A: No apoptosis was detected
[2]
  vimentin expression vs CTRL, MCF-10A: not significant
[3]
  LogP: 0.78
[4]
  caspases 3/7, 8 and 9 activity levels, MCF-10A: No differences
[5]
  effect on actin polymerization (in words): inhibiting activity higher that CB but lesser than LA
[6]
  cytochrome c localization, MCF-10A: within mitochondria
[7]
  effect on already polymerized actin (in words): did not produce a significant decrease
[8]
  NF-κB localization, MCF-10A: localized within the cytoplasm and nucleus

## Cn1ccn(CC([O-])c2ccccc2)[c]1=[Au+]=[c]1n(C)ccn1CC([O-])c1ccccc1.[Cl-].[Na+].[Na+] (centres unmarked) [Compound 1]
[1]
  apoptosis (TUNEL), MCF-10A: No apoptosis was detected
[2]
  vimentin expression vs CTRL, MCF-10A: not significant
[3]
  LogP: 0.079
[4]
  caspases 3/7, 8 and 9 activity levels, MCF-10A: No differences
[5]
  effect on actin polymerization (in words): inhibiting activity higher that CB but lesser than LA
[5]; end of 1 h kinetic read, control about 37.000 RFU
  actin polymerization curve, final value: 17000 RFU
[6]
  cytochrome c localization, MCF-10A: within mitochondria
[7]
  effect on already polymerized actin (in words): did not produce a significant decrease
[8]
  NF-κB localization, MCF-10A: localized within the cytoplasm and nucleus
